# Test results published in patent US20200368371A1, “DYE-PROTEIN COMPLEX FOR NIR II AND PHOTOACOUSTIC IMAGING” (The Board of Trustees of the Leland Stanford Junior …, priority 2019, published 2020).
# Tests used:
# [1] = all light conditions; cited from earlier work
# C57BL/6 mice = test: In vivo NIR-II imaging of lymphatic system
# Experimental: A gentle massage was performed on the injection site for faster diffusion into the lymphatic system.
# Before imaging, all mice were anesthetized in a rodent anesthesia machine with 2 L/min O^2 gas mixed with 3% Soflurane. C57BL/6 mice were used for the vascular and lymphatic system NIR-II imaging. […] A gentle massage was performed at the injection site to increase the speed of diffusion into the lymphatic system. […] All groups within the study contained n=3 mice.
# All NIR-II images were collected on a two-dimensional InGaAs array NIR-II system (Princeton Instruments). The excitation was provided by an 808 nm diode laser through an optical fiber and collimator. Fluorescence emission was collected with 1000 nm or more than 1000 nm long-pass filters (Thorlabs). A lens set was used to obtain tunable magnifications ranging from 1× (whole body) to 2.5× (high magnification) by changing the relative position of two NIR achromats (75 mm and 200 mm, Thorlabs). Image J software were used for analyzing the images.
# The fluorescence measurement was performed to quantify NIR-II fluorescence signal intensity through the Image J software (National Institutes of Health, Bethesda, Md.). The line graphs and Gaussian-fitted FWHM were analysis by origin 8.5 (OriginLab Corporation, Northampton, Mass.).
# [2] = Fluorescence intensity at different concentrations of IR-820 in deionized water and PBS; type: physicochemical
# Experimental: IR-820 was first dissolved in deionized water, and then added to deionized water or PBS to determine the optimal concentration. […] 10 μM was determined as the concentration for other studies. […] Different HSA: IR-820 ratios were prepared while keeping IR-820 at a constant 10 μM to determine the approximate binding stoichiometry.
# [3] = Absorbance spectra in deionized water; type: physicochemical; details: DI water
# Source text: Absorbance spectra of IR-820 and complexes were taken on an ultraviolet-visible-NIR Cary 60 spectrometer (Agilent Technologies) with background correction.
# [4] = prone position, subcutaneous footpad injection
structure (smiles),measurement,setting,value
CC1(C)C(=CC=C2CCCC(C=CC3=[N+](CCCCS(=O)(=O)[O-])c4ccc5ccccc5c4C3(C)C)=C2Cl)N(CCCCS(=O)(=O)[O-])c2ccc3ccccc3c21.[Na+] [IR-820],stability in aqueous solution,[1],greater stability than ICG
same,identification of the inguinal lymph node,"C57BL/6 mice; left side, subcutaneous injection",failed
same,FWHM of lymphatic vessels,C57BL/6 mice; [4],unmeasurable
same,SBR of lymphatic vessels,C57BL/6 mice; [4],1.33
same,behaviour in PBS,[2],poor solubility or severe quenching
same,absorbance strong peak,[3],690 nm
same,absorbance weak shoulder,[3],815 nm
